Assay results as given in the supplement of paper PMC8882468.

How the values were obtained:
Assay in all cases: CTG-3D luminescence at 96 h relative to day-0 seeding control (ratio to day 0); higher = more growth / less cytotoxicity; PDxO 3D drug screen, 96 h, CTG-3D normalised to day-0 seeding control.
HCI-001 = system: HCI-001 (organoid from a triple-negative breast cancer xenograft)
HCI-002 = system: HCI-002 (organoid from a triple-negative breast cancer xenograft)
HCI-003.E2 = system: HCI-003.E2 (organoid from an ER-positive breast cancer xenograft)
HCI-019 = system: HCI-019 (organoid from a triple-negative breast cancer xenograft)
HCI-024 = system: HCI-024 (organoid from a breast cancer xenograft)

CN(Cc1cnc2nc(N)nc(N)c2n1)c1ccc(C(=O)N[C@@H](CCC(=O)O)C(=O)O)cc1 [methotrexate]
CTG-3D luminescence at 96 h
Details	12.5 pM	0.00025 µM	0.005 µM	0.1 µM	1 µM	10 µM	100 µM	625 fM
HCI-001, days in culture: 240	2.01	1.12	1.13	1.01	1.26	1.06	1.21	1.72
HCI-001, days in culture: 260	2.08	0.984	2.27	1.47	1.43	1.62	0.88	1.26
HCI-001, days in culture: 269	1.68	1.46	1.53	1.86	1.46	2.16	2.3	1.5
HCI-001, days in culture: 327	1.75	1.62	2.05	1.14	0.877	0.985	1.35	1.69
HCI-001, days in culture: 346	1.53	1.34	1.28	1.02	0.965	1.41	1.19	1.2
HCI-001, days in culture: 364	1.58	1.17	1.45	0.891	0.633	1.11	0.716	1.64
HCI-002, days in culture: 62	2.96	2.69	2.51	2.07	1.87	1.98	1.41	3
HCI-002, days in culture: 82	2.95	3.08	2.15	2.74	2.21	2.01	1.45	2.71
HCI-002, days in culture: 91	3.87	3.77	3.65	2.64	2.19	2.11	1.68	4.28
HCI-002, days in culture: 191	2.61	2.61	2.29	1.61	1.57	1.54	1.33	2.53
HCI-002, days in culture: 209	2.46	2.21	2.31	1.84	1.59	1.28	1.33	2.57
HCI-002, days in culture: 227	6.13	6.3	5.89	6.23	5.35	5.18	4.27	6.94
HCI-019, days in culture: 110	2.05	1.69	1.69	1.92	1.17	1.54	1.35	2.13
HCI-019, days in culture: 131	2.79	3.21	2.83	2.59	2.04	2.25	2.11	3.85
HCI-019, days in culture: 152	2.67	2.23	2.89	2.1	2.27	2.28	2.16	2.17
HCI-024, days in culture: 105	1.92	1.49	1.24	1.99	1.64	2	1.44	1.83
HCI-024, days in culture: 122	1.69	2.22	2.07	2	2.13	2.46	1.82	2.88
HCI-024, days in culture: 163	1.9	2.08	1.83	2.4	2.14	2.03	1.74	2.12

HCI-003.E2
Details	CTG-3D luminescence at 96 h
12.5 pM	2.32
0.00025 µM	2.47
0.005 µM	2.09
0.1 µM	2.12
1 µM	1.83
10 µM	1.9
100 µM	1.64
625 fM	2.12

CC1(C)CCC(c2ccc(Cl)cc2)=C(CN2CCN(c3ccc(C(=O)NS(=O)(=O)c4ccc(N[C@H](CCN5CCOCC5)CSc5ccccc5)c(S(=O)(=O)C(F)(F)F)c4)cc3)CC2)C1 [navitoclax]
CTG-3D luminescence at 96 h
Details	12.5 pM	0.00025 µM	0.005 µM	0.1 µM	1 µM	10 µM	100 µM	625 fM
HCI-001, days in culture: 240	1.51	1.07	0.955	1.53	1.1	0.369	0.0412	1.73
HCI-001, days in culture: 260	2.66	1.09	1.83	1.92	1.58	0.642	0.0822	1.64
HCI-001, days in culture: 269	1.8	1.73	1.37	1.38	0.942	0.889	0.124	1.67
HCI-001, days in culture: 327	2.11	1.59	2.17	1.48	0.963	0.0556	-0.168	2.04
HCI-001, days in culture: 346	1.64	1.22	1.38	1.24	1.3	0.577	0.00509	1.3
HCI-001, days in culture: 364	1.67	1.16	1.61	1.17	1.17	0.802	0.00601	1.63
HCI-002, days in culture: 62	3.12	2.9	3.78	2.92	2.42	1.07	0.00133	3.47
HCI-002, days in culture: 82	3.88	4.28	2.86	2.91	2.86	1.36	0.00885	3.44
HCI-002, days in culture: 91	3.48	2.91	2.21	2.3	1.97	1.73	0.00844	3.14
HCI-002, days in culture: 191	3.36	3.04	3.27	3.13	2.63	1.29	-0.105	3.4
HCI-002, days in culture: 209	2.83	3.07	2.6	2.13	1.85	1.18	-0.00717	2.97
HCI-002, days in culture: 227	5.11	5.2	4.65	4.75	3.73	3.27	0.0214	5.74
HCI-019, days in culture: 110	1.8	1.8	1.56	1.84	0.469	0.538	0.0111	2.31
HCI-019, days in culture: 131	2.39	3.6	3.23	2.91	1.25	0.358	0.0147	3.96
HCI-019, days in culture: 152	2.86	2.49	3.21	1.89	0.769	0.582	0.00119	2.39
HCI-024, days in culture: 105	1.44	1.51	1.24	1.47	1.01	1.1	0.182	1.59
HCI-024, days in culture: 122	1.5	2.32	1.85	1.88	1.6	1.52	0.266	2.7
HCI-024, days in culture: 163	1.88	2.19	1.74	2.8	1.99	1.74	0.357	2.54

HCI-003.E2
Details	CTG-3D luminescence at 96 h
12.5 pM	1.98
0.00025 µM	2.09
0.005 µM	1.64
0.1 µM	2.22
1 µM	1.78
10 µM	1.12
100 µM	0.0236
625 fM	1.76

NC(=O)c1cccc2cn(-c3ccc([C@@H]4CCCNC4)cc3)nc12 [niraparib]
CTG-3D luminescence at 96 h
Details	12.5 pM	0.00025 µM	0.005 µM	0.1 µM	1 µM	10 µM	100 µM	625 fM
HCI-001, days in culture: 240	1.8	0.913	0.843	1.05	1.61	1.03	-0.07	1.32
HCI-001, days in culture: 260	2.65	1.11	2.11	1.64	1.53	1.92	-0.0335	1.4
HCI-001, days in culture: 269	1.85	1.93	1.42	1.32	1.1	1.23	-0.00141	1.67
HCI-001, days in culture: 327	1.97	1.95	2.3	1.8	1.66	1.28	-0.186	2.27
HCI-001, days in culture: 346	1.69	1.24	1.24	1.4	1.51	1.1	-0.143	1.28
HCI-001, days in culture: 364	1.81	1.28	1.69	1.33	1.33	1.2	-0.0638	1.67
HCI-002, days in culture: 62	3.51	3	3.42	2.62	1.36	0.533	-0.0877	3.34
HCI-002, days in culture: 82	3.5	3.51	2.69	2.16	1.29	0.381	-0.026	2.77
HCI-002, days in culture: 91	2.87	2.3	1.8	1.74	1.11	0.377	-0.0114	2.66
HCI-002, days in culture: 191	3.37	2.98	3.35	2.51	1.99	0.811	-0.139	3.21
HCI-002, days in culture: 209	2.84	2.96	2.54	1.96	1.18	0.302	-0.0818	2.86
HCI-002, days in culture: 227	4.63	5.21	4.64	3.79	2.08	0.87	-0.0133	5.51
HCI-019, days in culture: 110	1.64	1.35	1.18	1.2	0.642	1.1	0.00205	2.72
HCI-019, days in culture: 131	2.29	3.06	2.98	2.4	0.89	1.3	0.00628	3.35
HCI-019, days in culture: 152	2.88	2.16	1.69	1.52	0.878	1.16	0.00267	2.35
HCI-024, days in culture: 105	1.48	1.61	1.14	1.43	1.44	1.27	0.00247	1.56
HCI-024, days in culture: 122	2.12	2.38	2.08	1.71	1.88	1.29	0.00108	2.15
HCI-024, days in culture: 163	1.73	1.86	1.82	2.37	1.78	1.17	0.00351	2.44

HCI-003.E2
Details	CTG-3D luminescence at 96 h
12.5 pM	2.06
0.00025 µM	2.18
0.005 µM	1.93
0.1 µM	2.06
1 µM	1.81
10 µM	1.28
100 µM	-0.000881
625 fM	1.94
